Measured values as given in patent publication US9610322B2, “Macrocyclic insulin-degrading enzyme (IDE) inhibitors and uses thereof” (President and Fellows of Harvard College, priority 2011, dated 2017).

Tests used:
recombinant human IDE = recombinant human IDE (Homo sapiens (Human), UniProt P14735); experiment: IDE protease assay, cleavage of fluorophore-quencher substrate peptide; type: biochemical; conditions: for stronger potency of trans-olefin isomer than corresponding cis-olefin isomer: trans vs cis olefin
Procedure: In vitro protease assays: Protease assays with IDE and neprilysin were performed using Mca-RPPGFSAFK(Dnp)-OH substrate peptide (R&D Systems, SEQ ID NO: 6) and purified recombinant human IDE and recombinant human neprilysin (R&D Systems) according to the manufacturer's instructions. For IDE, 2 μL of small molecule dissolved in DMSO was combined with 48 μL, 0.2 μg/mL IDE in IDE assay buffer (50 mM Tris, 1 M NaCl, pH 7.5). 50 μL, of 20 μM substrate peptide in IDE assay buffer was then added to initiate the reaction, and peptide cleavage was monitored on a fluorescent plate reader (excitation=320 nm; emission=405 nm) for 5 minutes. The above protocol was also used for assaying neprilysin activity, substituting the neprilysin assay buffer (50 mM Tris, 0.05% Brij-35, pH 9.0).
Compounds were synthesized as described previously;^9 in most cases the macrocycle synthesis yielded two isomers corresponding to the cis and trans olefins generated after macrocyclization. Macrocycles were assayed for IDE inhibition by monitoring cleavage of a substrate peptide^13 containing a fluorophore-quencher pair such that cleavage of the model substrate results in increased fluorescence.

[1] = Biodistribution assay after IP injection, LC-MS of organ extracts; type: in vivo, mouse; conditions: mice, intraperitoneal injection, 45 minutes
Procedure: Macrocycles were diluted to 0.1 mg/mL or 1 mg/mL in PBS and IP-injected into a mouse to produce a concentration of 1 mg/kg or 10 mg/kg, respectively. After 45 minutes, organs were harvested, and the small-molecule fractions were extracted into a 2:1:1 mixture of chloroform:methanol:water. Samples were evaporated under a stream of nitrogen, resuspended in 100 μL of chloroform and subjected to LC-MS analysis.
The tissue distribution of enriched macrocycles after i.p. injection was examined. […] Briefly, compounds were injected at different concentrations intraperitoneally into mice, and plasma, brain, and pancreas were harvested after 45 minutes. Vehicle-only injections were performed as negative controls. We determined the relative amount of macrocycle present by extracting the organs with organic solvents and quantifying the amount of compound present by LC-MS analysis.

plasma IDE activity = experiment: Plasma IDE activity in mice injected with inhibitor; type: in vivo
Procedure: Finally, we compared plasma IDE activity in mice injected with 6b with plasma IDE activity in control mice injected with vehicle alone (18:1:1, saline:DMSO:Tween-80). Plasma IDE activity 60 min after 10 mg/kg, 20 mg/kg, or 40 mg/kg i.p. injection of 6b was inhibited by ≧90% (FIG. 9).

[2] = Preliminary pharmacokinetics after i.p. injection, LC-MS quantitation; conditions: mice
[3] = previous indications; cited from earlier work

Sequence of recombinant human IDE (P14735 whole entry): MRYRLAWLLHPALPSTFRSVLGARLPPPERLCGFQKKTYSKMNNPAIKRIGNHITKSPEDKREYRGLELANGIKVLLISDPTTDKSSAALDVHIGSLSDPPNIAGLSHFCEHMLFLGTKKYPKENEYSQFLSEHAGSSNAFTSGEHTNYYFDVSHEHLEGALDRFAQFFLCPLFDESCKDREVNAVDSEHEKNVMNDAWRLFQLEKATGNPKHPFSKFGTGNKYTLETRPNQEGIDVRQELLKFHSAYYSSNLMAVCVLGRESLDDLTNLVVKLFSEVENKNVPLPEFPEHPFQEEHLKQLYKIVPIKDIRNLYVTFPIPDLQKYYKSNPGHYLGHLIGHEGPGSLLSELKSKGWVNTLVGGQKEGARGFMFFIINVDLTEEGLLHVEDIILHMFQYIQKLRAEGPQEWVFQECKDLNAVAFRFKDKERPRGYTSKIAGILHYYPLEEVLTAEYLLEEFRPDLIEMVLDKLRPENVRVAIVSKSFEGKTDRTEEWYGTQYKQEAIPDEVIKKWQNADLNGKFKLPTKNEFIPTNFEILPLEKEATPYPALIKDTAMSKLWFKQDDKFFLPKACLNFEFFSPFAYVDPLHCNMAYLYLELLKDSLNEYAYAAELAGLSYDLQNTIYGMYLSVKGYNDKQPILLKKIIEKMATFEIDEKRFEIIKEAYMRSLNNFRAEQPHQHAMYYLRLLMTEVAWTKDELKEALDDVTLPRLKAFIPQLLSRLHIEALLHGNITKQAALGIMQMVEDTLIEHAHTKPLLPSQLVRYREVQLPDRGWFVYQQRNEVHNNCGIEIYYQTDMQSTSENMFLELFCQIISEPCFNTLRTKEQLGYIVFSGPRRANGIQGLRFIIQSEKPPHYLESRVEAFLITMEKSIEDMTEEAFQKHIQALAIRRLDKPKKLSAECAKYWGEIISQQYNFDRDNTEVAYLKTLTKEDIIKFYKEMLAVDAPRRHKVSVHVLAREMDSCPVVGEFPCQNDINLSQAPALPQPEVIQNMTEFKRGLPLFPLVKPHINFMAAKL

NCCCC[C@@H]1NC(=O)/C=C/C(=O)NC(C(N)=O)CCCCNC(=O)[C@@H](Cc2ccc(C(=O)c3ccccc3)cc2)NC(=O)[C@H](CC2CCCCC2)NC1=O (stereo partly shown) [Compound 20]
effect of modification on IDE inhibitor potency relative to 6b, in words (recombinant human IDE; derivatives of 6b): equipotent

NC(=O)CCC1NC(=O)C=CC(=O)NC(C(N)=O)CCCCNC(=O)C(Cc2ccc(C(=O)c3ccccc3)cc2)NC(=O)C(CC2CCCCC2)NC1=O (stereo not shown) [Compound 6b]
detection in brain [1]: none of the three compounds could be detected in the brain
detection in pancreas [1]: could be detected
detection in plasma [1]: could be detected
macrocycle concentrations in the plasma compared among compounds [1]: comparable
inhibition of plasma IDE activity (plasma IDE activity; 60 min after 10 mg/kg i.p.): ≥ 90%
inhibition of plasma IDE activity (plasma IDE activity; 60 min after 20 mg/kg i.p.): ≥ 90%
inhibition of plasma IDE activity (plasma IDE activity; 60 min after 40 mg/kg i.p.): ≥ 90%
peak blood concentration ([2]; i.p. 20 mg/kg): 0.2 µM
time of peak blood concentration ([2]; i.p. 20 mg/kg): 60 min
tolerability of injections ([2]; i.p. 20 mg/kg in 18:1:1 saline:DMSO:Tween-80): well tolerated

NC(=O)CCC1NC(=O)C=CC(=O)NC(C(N)=O)CCCCNC(=O)CNC(=O)C(CC2CCCCC2)NC1=O (stereo not shown) [Compound 1]
activity against IDE in words (recombinant human IDE): inactive

NC(=O)C1CCCCNC(=O)C(Cc2ccc(C(=O)c3ccccc3)cc2)NC(=O)C(CC2CCCCC2)NC(=O)C(CC2CC2)NC(=O)C=CC(=O)N1 (mixture of isomers) [Compound 5]
stronger potency of trans-olefin isomer than corresponding cis-olefin isomer (recombinant human IDE): > 10 fold

NC(=O)C1CCCCNC(=O)C(Cc2ccc(C(=O)c3ccccc3)cc2)NC(=O)C(CC2CCCCC2)NC(=O)CC(O)C(CC2CCCCC2)NC(=O)C=CC(=O)N1 (mixture of isomers) [Compound 3]
stronger potency of trans-olefin isomer than corresponding cis-olefin isomer (recombinant human IDE): > 10 fold

N=C(N)NCCC[C@H](NC(=O)[C@@H](CC(=O)NO)Cc1ccc2ccccc2c1)C(=O)N[C@@H](Cc1c[nH]c2ccccc12)C(=O)N[C@@H](CCC(=O)O)C(N)=O [Ii1]
stability under physiological conditions [3]: not sufficiently stable under physiological conditions

NC(=O)CCC1NC(=O)C=CC(=O)NC(C(N)=O)CCCCNC(=O)C(Cc2ccc(C(=O)c3ccccc3)cc2)NC(=O)C(CC2CCCCC2)NC1=O (mixture of isomers) [Compound 6]
stronger potency of trans-olefin isomer than corresponding cis-olefin isomer (recombinant human IDE): > 10 fold
